According to ChEMBL document CHEMBL3885881, “DrugMatrix”:

Species on record: Rattus norvegicus
Experiment: DrugMatrix - Regimen: Daily Repeat
Assay type: toxicity, organism-based, Sprague-Dawley
Set-up: regimen Daily Repeat, gender Male, age 6-8 weeks
Settings: in vivo, po, route oral GAVAGE, […]; for ABSOLUTE BASOPHIL / ABSOLUTE EOSINOPHIL / ABSOLUTE LYMPHOCYTE / ABSOLUTE MONOCYTE / ABSOLUTE SEGMENTED NEUTROPHIL / BASOPHIL / EOSINOPHIL / ERYTHROCYTE COUNT / HEMATOCRIT / HEMOGLOBIN / LEUKOCYTE COUNT / LYMPHOCYTE / MEAN CORPUSCULAR HEMOGLOBIN / MEAN CORPUSCULAR HEMOGLOBIN CONCENTRATION / MEAN CORPUSCULAR VOLUME / MONOCYTE / NEUTROPHIL / NUCLEATED RED BLOOD CELLS / PLATELET COUNT: tissue Blood; for ALANINE AMINOTRANSFERASE / ALBUMIN / ALKALINE PHOSPHATASE / ASPARTATE AMINOTRANSFERASE / BLOOD UREA NITROGEN / CARBON DIOXIDE / CHLORIDE / CHOLESTEROL / CREATINE PHOSPHOKINASE / CREATININE / GLUCOSE / LACTATE DEHYDROGENASE / LIPASE / PHOSPHORUS / POTASSIUM / SODIUM / TOTAL BILIRUBIN / TOTAL PROTEIN / URIC ACID: tissue Plasma
[1] = 0 mg/kg, 72 h, dose level Control, time 3 day
[2] = 0 mg/kg, 120 h, dose level Control, time 5 day
[3] = 3 mg/kg, 72 h, dose level Low, time 3 day

CC#C[C@]1(O)CC[C@H]2[C@@H]3CCC4=CC(=O)CCC4=C3[C@@H](c3ccc(N(C)C)cc3)C[C@@]21C [MIFEPRISTONE]
ABSOLUTE BASOPHIL [1]: 0 CELLS/uL
ABSOLUTE EOSINOPHIL [1]: 14 CELLS/uL
ABSOLUTE LYMPHOCYTE [1]: 11144.67 CELLS/uL
ABSOLUTE MONOCYTE [1]: 22.5 CELLS/uL
ABSOLUTE SEGMENTED NEUTROPHIL [1]: 535.5 CELLS/uL
BASOPHIL [1]: 0%
EOSINOPHIL [1]: 0.17%
ERYTHROCYTE COUNT [1]: 5.08 x10E6/uL
HEMATOCRIT [1]: 32.32%
HEMOGLOBIN [1]: 12.87 G/DL
LEUKOCYTE COUNT [1]: 11.72 x10E3/uL
LYMPHOCYTE [1]: 94.67%
MEAN CORPUSCULAR HEMOGLOBIN [1]: 25.37 pg
MEAN CORPUSCULAR HEMOGLOBIN CONCENTRATION [1]: 39.85 G/DL
MEAN CORPUSCULAR VOLUME [1]: 63.58 fL
MONOCYTE [1]: 0.17%
NEUTROPHIL [1]: 5%
NUCLEATED RED BLOOD CELLS [1]: 0 /100WBC
PLATELET COUNT [1]: 1084 x10E3/uL
ALANINE AMINOTRANSFERASE [1]: 67.5 u/L
ALBUMIN [1]: 4.02 G/DL
ALKALINE PHOSPHATASE [1]: 374.17 u/L
ASPARTATE AMINOTRANSFERASE [1]: 83.5 u/L
BLOOD UREA NITROGEN [1]: 14.5 mg/dL
CARBON DIOXIDE [1]: 30 mmol/L
CHLORIDE [1]: 100.5 MEQ/L
CHOLESTEROL [1]: 71.33 mg/dL
CREATINE PHOSPHOKINASE [1]: 268.33 u/L
CREATININE [1]: 0.16 mg/dL
GLUCOSE [1]: 170.5 mg/dL
LACTATE DEHYDROGENASE [1]: 81.17 u/L
LIPASE [1]: 16.67 u/L
PHOSPHORUS [1]: 10.07 mg/dL
POTASSIUM [1]: 5.03 MEQ/L
SODIUM [1]: 142.92 MEQ/L
TOTAL BILIRUBIN [1]: 0.17 mg/dL
TOTAL PROTEIN [1]: 5.63 G/DL
URIC ACID [1]: 0.5 mg/dL
ABSOLUTE BASOPHIL [2]: 0 CELLS/uL
ABSOLUTE EOSINOPHIL [2]: 37.5 CELLS/uL
ABSOLUTE LYMPHOCYTE [2]: 8049.5 CELLS/uL
ABSOLUTE MONOCYTE [2]: 82.83 CELLS/uL
ABSOLUTE SEGMENTED NEUTROPHIL [2]: 646.83 CELLS/uL
BASOPHIL [2]: 0%
EOSINOPHIL [2]: 0.5%
ERYTHROCYTE COUNT [2]: 5.36 x10E6/uL
HEMATOCRIT [2]: 33.9%
HEMOGLOBIN [2]: 13.02 G/DL
LEUKOCYTE COUNT [2]: 8.82 x10E3/uL
LYMPHOCYTE [2]: 90.17%
MEAN CORPUSCULAR HEMOGLOBIN [2]: 24.32 pg
MEAN CORPUSCULAR HEMOGLOBIN CONCENTRATION [2]: 38.42 G/DL
MEAN CORPUSCULAR VOLUME [2]: 63.32 fL
MONOCYTE [2]: 1.17%
NEUTROPHIL [2]: 8.17%
NUCLEATED RED BLOOD CELLS [2]: 0.17 /100WBC
PLATELET COUNT [2]: 1231.5 x10E3/uL
ALANINE AMINOTRANSFERASE [2]: 62 u/L
ALBUMIN [2]: 3.97 G/DL
ALKALINE PHOSPHATASE [2]: 303.67 u/L
ASPARTATE AMINOTRANSFERASE [2]: 84.5 u/L
BLOOD UREA NITROGEN [2]: 14.83 mg/dL
CARBON DIOXIDE [2]: 31.83 mmol/L
CHLORIDE [2]: 97 MEQ/L
CHOLESTEROL [2]: 68.83 mg/dL
CREATINE PHOSPHOKINASE [2]: 411.33 u/L
CREATININE [2]: 0.16 mg/dL
GLUCOSE [2]: 170.17 mg/dL
LACTATE DEHYDROGENASE [2]: 88.5 u/L
LIPASE [2]: 9.5 u/L
PHOSPHORUS [2]: 9.98 mg/dL
POTASSIUM [2]: 5.72 MEQ/L
SODIUM [2]: 141.62 MEQ/L
TOTAL BILIRUBIN [2]: 0.1 mg/dL
TOTAL PROTEIN [2]: 5.67 G/DL
URIC ACID [2]: 0.52 mg/dL
ABSOLUTE BASOPHIL [3]: 0 CELLS/uL
ABSOLUTE EOSINOPHIL [3]: 0 CELLS/uL
ABSOLUTE LYMPHOCYTE [3]: 9937.33 CELLS/uL
ABSOLUTE MONOCYTE [3]: 98.67 CELLS/uL
ABSOLUTE SEGMENTED NEUTROPHIL [3]: 897.33 CELLS/uL
BASOPHIL [3]: 0%
EOSINOPHIL [3]: 0%
ERYTHROCYTE COUNT [3]: 4.8 x10E6/uL
HEMATOCRIT [3]: 31.67%
HEMOGLOBIN [3]: 12.47 G/DL
LEUKOCYTE COUNT [3]: 10.93 x10E3/uL
LYMPHOCYTE [3]: 91.33%
MEAN CORPUSCULAR HEMOGLOBIN [3]: 25.97 pg
MEAN CORPUSCULAR HEMOGLOBIN CONCENTRATION [3]: 39.4 G/DL
MEAN CORPUSCULAR VOLUME [3]: 66.03 fL
MONOCYTE [3]: 1%
NEUTROPHIL [3]: 7.67%
NUCLEATED RED BLOOD CELLS [3]: 0 /100WBC
PLATELET COUNT [3]: 1024.33 x10E3/uL
ALANINE AMINOTRANSFERASE [3]: 67 u/L
ALBUMIN [3]: 3.93 G/DL
ALKALINE PHOSPHATASE [3]: 384 u/L
ASPARTATE AMINOTRANSFERASE [3]: 83 u/L
BLOOD UREA NITROGEN [3]: 13 mg/dL
CARBON DIOXIDE [3]: 30.33 mmol/L
CHLORIDE [3]: 100.67 MEQ/L
CHOLESTEROL [3]: 68 mg/dL
CREATINE PHOSPHOKINASE [3]: 246.67 u/L
CREATININE [3]: 0.12 mg/dL
GLUCOSE [3]: 171 mg/dL
LACTATE DEHYDROGENASE [3]: 78.33 u/L
LIPASE [3]: 10 u/L
PHOSPHORUS [3]: 10.13 mg/dL
POTASSIUM [3]: 5.79 MEQ/L
SODIUM [3]: 143.5 MEQ/L
TOTAL BILIRUBIN [3]: 0.17 mg/dL
TOTAL PROTEIN [3]: 5.6 G/DL
URIC ACID [3]: 0.57 mg/dL
